The target of one experiment is T1, COX-1 (Homo sapiens, UniProt P23219).
T1 construct: endogenous in cells; host or cells: heparinised human whole blood from donors, stimulated with the calcium ionophore A23187
Kind of experiment: Human COX-1 enzyme activity in human whole blood (A23187-stimulated, thromboxane B2 EIA). Type of experiment: cell-based. The settings on record: 100 μM, human whole blood, A23187 stimulation; for inhibition at 100 µM: read-out: COX-1 Inhibition (% at 100 μM). The method, then: (§1) The blood was transported to the laboratory on ice packs and used within 1.5 hours of collection. Upon receipt in the laboratory, the blood was allowed to come to room temperature for 15 minutes prior to distribution in 1 mL aliquots per well of 24 well tissue culture plates. […] Test compounds were dissolved in DMSO, at 1000 fold the final desired concentration, and further diluted, as indicated, in DMSO. One μL of each dilution of the test compound was added per well, in duplicate wells; wells not receiving test compound (e.g., basal, background or control wells) received 1 μL DMSO. […] Louis, Mo., Catalogue No. […] Louis, Mo., Catalogue No. […] (Again, basal, background or control wells not stimulated with A23187 received 1 μL of DMSO.) At 5 hours after the addition of the test compound, all incubations were terminated by placement on ice and the addition of 2 mM EGTA (100 μL of 20 mM EGTA, tetrasodium, in PBS (phosphate buffered saline) without Ca^++ and Mg^++, pH 7.2)). […] One hundred μL of plasma was removed from each blood sample and added to 1 mL of methanol in new 15 mL polypropylene centrifuge tubes, vortexed, and stored overnight at -20° C. […] The samples were assayed for thromboxane B2 using EIA kits supplied by Cayman Chemical Co. […] The % inhibition for COX-1 and COX-2 enzyme activity in human whole blood by the test compounds, at the indicated concentrations, are given in Table 1.

In a further experiment the target is T2, COX-2 (Homo sapiens, UniProt P35354).
T2 construct: To induce COX-2, lipopolysaccharide (LPS) from E. coli; endogenous in cells; host or cells: heparinised human whole blood from donors, with COX-2 induced by E. coli LPS
T2 sequence (P35354 18-604): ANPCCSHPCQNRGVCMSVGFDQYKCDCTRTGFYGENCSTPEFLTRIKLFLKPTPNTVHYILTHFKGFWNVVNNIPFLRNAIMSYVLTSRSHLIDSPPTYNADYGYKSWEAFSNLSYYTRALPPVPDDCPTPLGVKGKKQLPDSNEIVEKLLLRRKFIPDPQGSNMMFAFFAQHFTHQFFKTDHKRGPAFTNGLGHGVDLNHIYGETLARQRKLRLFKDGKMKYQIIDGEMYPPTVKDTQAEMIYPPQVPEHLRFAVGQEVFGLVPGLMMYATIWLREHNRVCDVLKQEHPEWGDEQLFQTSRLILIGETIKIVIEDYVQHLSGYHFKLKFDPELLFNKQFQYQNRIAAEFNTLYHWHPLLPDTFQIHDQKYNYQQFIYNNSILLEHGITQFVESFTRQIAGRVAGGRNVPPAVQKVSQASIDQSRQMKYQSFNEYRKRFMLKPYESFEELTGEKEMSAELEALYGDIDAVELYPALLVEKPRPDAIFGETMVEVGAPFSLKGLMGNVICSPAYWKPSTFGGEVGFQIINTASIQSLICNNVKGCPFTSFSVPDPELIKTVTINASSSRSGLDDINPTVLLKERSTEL
The experiment is described as follows: Human COX-2 enzyme activity in human whole blood (LPS-induced, thromboxane B2 EIA). As to conditions: human whole blood, LPS induction; for inhibition at 1 µM: read-out: COX-2 Inhibition (% at 1 μM); for inhibition at 10 µM: read-out: COX-2 Inhibition (% at 10 μM). Type of experiment: cell-based. As for the experimental part: as §1

T1 sequence (P23219 24-599): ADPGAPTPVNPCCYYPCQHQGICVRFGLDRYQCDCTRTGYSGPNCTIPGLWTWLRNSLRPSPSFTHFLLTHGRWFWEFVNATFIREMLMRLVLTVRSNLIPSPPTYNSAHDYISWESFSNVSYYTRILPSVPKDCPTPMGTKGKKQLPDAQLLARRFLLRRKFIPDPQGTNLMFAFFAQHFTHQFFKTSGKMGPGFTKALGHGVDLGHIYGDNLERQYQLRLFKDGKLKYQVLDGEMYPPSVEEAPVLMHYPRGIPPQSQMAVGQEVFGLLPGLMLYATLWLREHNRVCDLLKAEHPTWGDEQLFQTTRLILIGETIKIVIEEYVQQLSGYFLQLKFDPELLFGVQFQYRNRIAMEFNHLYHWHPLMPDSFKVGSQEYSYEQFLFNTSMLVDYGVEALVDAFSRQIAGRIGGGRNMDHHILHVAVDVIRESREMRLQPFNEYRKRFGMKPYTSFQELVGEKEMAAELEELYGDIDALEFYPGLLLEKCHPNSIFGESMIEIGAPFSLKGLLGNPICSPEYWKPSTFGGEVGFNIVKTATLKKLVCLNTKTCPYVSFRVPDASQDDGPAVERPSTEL

`CS(=O)(=O)c1ccc(-c2cc(/C=C\CCO)nn2C2CCCCC2)cc1` [Example 4e, 1-(3-((1Z)-4-(Hydroxy)but-1-enyl)-1-cyclohexylpyrazol-5-yl-4-methylsulfonyl)benzene]: at COX-1, the “COX-1 Inhibition (% at 100 μM)” value is listed as 45%. Further, on COX-2, the “COX-2 Inhibition (% at 1 μM)” value worked out at 30% and the “COX-2 Inhibition (% at 10 μM)” value turned out to be 70%.
A word on the inhibition: it is the change of the read-out against control, counted positive when it falls. As to `CS(=O)(=O)c1ccc(-c2cc(COCCCO)nn2C2CCCCC2)cc1` [Example 16b, 1-(1-Cyclohexyl-3-((3-hydroxypropoxy)methyl)pyrazol-5-yl)-4-(methylsulfonyl)benzene], the inhibition at 100 µM on COX-1 was 10%. Besides, at COX-2, the inhibition at 1 µM came to 20% and the inhibition at 10 µM was determined as 55%.
The matching figures for `CS(=O)(=O)c1ccc(-c2cc(COCCCO)nn2-c2ccccc2)cc1` [Example 5d, 4-(3-((3-Hydroxypropoxy)methyl)-1-phenylpyrazol-5-yl)-1-(methylsulfonyl)benzene]: 25%, 20% and 80%.
On to `CS(=O)(=O)c1ccc(-c2cc(CO[N+](=O)[O-])nn2C2CCCCCCC2)cc1` [Example 1h], for which the “COX-1 Inhibition (% at 100 μM)” value at COX-1 was 60%. Besides, at COX-2, the “COX-2 Inhibition (% at 1 μM)” value is 50% and the “COX-2 Inhibition (% at 10 μM)” value was 90%.
As to `CC(O)CCOCc1cc(-c2ccc(S(C)(=O)=O)cc2)n(-c2ccccc2)n1` (stereo not drawn) [Example 19b, 1-(3-((3-Hydroxybutoxy)methyl)-1-phenylpyrazol-5-yl)-4-(methylsulfonyl)benzene], the inhibition at 100 µM on COX-1 is 40%. At COX-2, the inhibition at 1 µM is 20% and the inhibition at 10 µM was 100%.
As for `CS(=O)(=O)c1ccc(-c2cc(C(=O)CO[N+](=O)[O-])nn2-c2ccccn2)cc1` [Example 35c, 1-(5-(4-(Methysulfonyl)phenyl)-1-(2-pyridyl)pyrazol-3-yl)-2-(nitrooxy)ethan-1-one], the “COX-1 Inhibition (% at 100 μM)” value on COX-1 is recorded as 0%. Further, on COX-2, the “COX-2 Inhibition (% at 1 μM)” value is 25% and the “COX-2 Inhibition (% at 10 μM)” value is 30%.
`Cc1ccc(-n2nc(C(=O)CCCO)cc2-c2ccc(S(C)(=O)=O)cc2)cc1` [Example 12d, 4-Hydroxy-1-(1-(4-methylphenyl)-5-(4-(methylsulfonyl)phenyl)pyrazol-3-yl)butan-1-one]: the inhibition at 100 µM at COX-1 was found to be 0%. Further, at COX-2, the inhibition at 1 µM came to 15% and the inhibition at 10 µM worked out at 45%.
For `CS(=O)(=O)c1ccc(-c2cc(/C=C/CCO[N+](=O)[O-])nn2-c2ccccc2)cc1` [Example 11f, 1-(3-((1E)-4-(Nitrooxy)but-1-enyl)-1-phenylpyrazol-5-yl)-4-(methylsulfonyl)benzene], the inhibition at 100 µM on COX-1 was 85%. Besides, on COX-2, the inhibition at 1 µM is 55% and the inhibition at 10 µM was 90%.
On to `NS(=O)(=O)c1ccc(-c2c(-c3ccccc3)noc2COCCO)cc1` [Example 27a], for which the “COX-1 Inhibition (% at 100 μM)” value at COX-1 is given as 45%. At COX-2, the “COX-2 Inhibition (% at 1 μM)” value worked out at 40% and the “COX-2 Inhibition (% at 10 μM)” value was determined as 90%.
For “4-(5-(4-Chlorophenyl)-3-((3-hydroxypropoxy)methyl)pyrazolyl)-benzenesulfonamide [Example 36b]”, in that order: 30%, 30% and 55%.
For `CS(=O)(=O)c1ccc(-c2cc(/C=C/CCO)nn2C2CCCCC2)cc1` [Example 21b], in that order: 10%, 10% and 25%.
On to `CS(=O)(=O)c1ccc(-c2cc(/C=C/CCO[N+](=O)[O-])nn2C2CCCCC2)cc1` [Example 21c, 1-(3-((1E)-4-(Nitrooxy)but-1-enyl)-1-cyclohexylpyrazol-5-yl)-4-(methylsulfonyl)benzene], for which, on COX-1, the inhibition at 100 µM was 60%. On COX-2, the inhibition at 1 µM is 45% and the inhibition at 10 µM was found to be 90%.
As to `CS(=O)(=O)c1ccc(-c2cc(C(=O)CCCO)nn2-c2ccc(Cl)cc2)cc1` [Example 44d, 1-(1-(4-Chlorophenyl)-5-(4-(methylsulfonyl)phenyl)pyrazol-3-yl)-4-hydroxybutan-1-one], the inhibition at 100 µM on COX-1 stood at 10%. In addition, at COX-2, the inhibition at 1 µM is 30% and the inhibition at 10 µM was determined as 60%.
`NS(=O)(=O)c1ccc(-c2c(-c3ccccc3)noc2COCCS(=O)(=O)CCO[N+](=O)[O-])cc1` [Example 37c]: the “COX-1 Inhibition (% at 100 μM)” value at COX-1 is on record as −15%. At COX-2, the “COX-2 Inhibition (% at 1 μM)” value amounted to 20% and the “COX-2 Inhibition (% at 10 μM)” value was found to be 20%.
Consider `CS(=O)(=O)c1ccc(-c2cc(C(=O)CCCO)nn2-c2ccc(F)cc2)cc1` [Example 13d, 1-(1-(4-Fluorophenyl)-5-(4-(methylsulfonyl)phenyl)pyrazol-3-yl)-4-hydroxybutan-1-one], for which the inhibition at 100 µM at COX-1 was found to be 0%. Besides, at COX-2, the inhibition at 1 µM worked out at 25% and the inhibition at 10 µM was found to be 25%.
As for `CS(=O)(=O)c1ccc(-c2cc(/C=C\CCO[N+](=O)[O-])nn2-c2ccccc2)cc1` [Example 11e, 1-(3-((1Z)-4-(Nitrooxy)but-1-enyl)-1-phenylpyrazol-5-yl)-4-(methylsulfonyl)benzene], the inhibition at 100 µM on COX-1 amounted to 90%. Besides, at COX-2, the inhibition at 1 µM was determined as 95% and the inhibition at 10 µM came to 100%.
`CS(=O)(=O)c1ccc(-c2cc(COCCCO[N+](=O)[O-])nn2C2CCCCC2)cc1` [Example 16c, 1-(1-Cyclohexyl-3-((3-(nitrooxy)propoxy)methyl)pyrazol-5-yl)-4-(methylsulfonyl)benzene]: the inhibition at 100 µM on COX-1 amounted to 10%. On COX-2, the inhibition at 1 µM worked out at 45% and the inhibition at 10 µM came out at 85%.
The matching figures for `NS(=O)(=O)c1ccc(-c2c(-c3ccccc3)noc2COCCS(=O)(=O)CCO)cc1` [Example 37b, 4-(5-((2-((2-Hydroxyethyl)sulfonyl)ethoxy)methyl)-3-phenylisoxazol-4-yl)benzenesulfonamide]: 50%, 35% and 90%.
Regarding `CS(=O)(=O)c1ccc(-c2cc(COCCCO[N+](=O)[O-])nn2-c2ccc(Cl)cc2)cc1` [Example 7e, 1-(1-(4-Chlorophenyl)-3-((3-(nitrooxy)propoxy)methyl)pyrazol-5-yl)-4-(methylsulfonyl)benzene], on COX-1, the inhibition at 100 µM was 90%. At COX-2, the inhibition at 1 µM was determined as 65% and the inhibition at 10 µM was found to be 100%.
On to `CS(=O)(=O)c1ccc(-c2cc(C(=O)CCCO)nn2C2CCCCC2)cc1` [Example 3e, 1-(1-Cyclohexyl-5-(4-(methylsulfonyl)phenyl)pyrazol-3-yl)-4-hydroxybutan-1-one], for which the inhibition at 100 µM at COX-1 stood at 0%. Also, at COX-2, the inhibition at 1 µM was 60% and the inhibition at 10 µM was found to be 90%.
For `NS(=O)(=O)c1ccc(-c2c(-c3ccccc3)noc2COCC(F)(F)CO)cc1` [Example 32c, 4-(5-((2,2-Difluoro-3-hydroxypropoxy)methyl)-3-phenylisoxazol-4-yl)benzenesulfonamide], the inhibition at 100 µM at COX-1 is -20%. Further, on COX-2, the inhibition at 1 µM was 15% and the inhibition at 10 µM stood at 75%.
The matching figures for `Cc1ccc(-n2nc(COCCCO)cc2-c2ccc(S(C)(=O)=O)cc2)cc1` [Example 8d, 1-(3-((3-Hydroxypropoxy)methyl)-1-(4-methylphenyl)pyrazol-5-yl)-4-(methylsulfonyl)benzene]: 70%, 20% and 90%.
For `COc1ccc(-n2nc(COCCCO[N+](=O)[O-])cc2-c2ccc(S(C)(=O)=O)cc2)cc1` [Example 39, 4-(1-(4-Methoxyphenyl)-3-((3-(nitrooxy)propoxy)methyl)pyrazol-5-yl)-1-(methylsulfonyl)benzene], the inhibition at 100 µM on COX-1 turned out to be 100%. In addition, at COX-2, the inhibition at 1 µM was 85% and the inhibition at 10 µM turned out to be 100%.

For the origin of these results see patent publication US7442802B2, “Cyclooxygenase-2 selective inhibitors, compositions and methods of use” (NitroMed, Inc., priority 2002, dated 2008).
